These results are taken from the NIST ThermoML archive (doi:10.1016/j.jct.2018.12.026).

± gives the expanded uncertainty stated by the source.

The conditions of data set [1]: Liquid; Ebulliometric method (Recirculating still).
The nature of data set [2]: refractive index (Na D-line) (dimensionless). Conditions: 293.15 K; 101.33 kPa; Liquid; Standard Abbe refractometry.

Take `CCC(=O)O` [propanoic acid]: the Normal boiling temperature in data set [1] turned out to be 141.20 ± 0.2 °C. Also, in data set [2], the refractive index stood at 1.3872 ± 0.0008.

`CCOC(=O)CC` [ethyl propanoate]: in data set [1], the Normal boiling temperature was determined as 99.10 ± 0.2 °C. Moreover, the refractive index in data set [2] is 1.3839 ± 0.0005.

Regarding `O` [water], in data set [1], the Normal boiling temperature was 100.00 ± 0.2 °C. Besides, in data set [2], the refractive index is reported as 1.333 ± 0.0005.

As for `CCO` [ethanol], the Normal boiling temperature in data set [1] worked out at 78.40 ± 0.2 °C. The refractive index in data set [2] is listed as 1.3608 ± 0.0009.
